Experimental data from the OligoGym collection.
“And” between values parts separate entries of the source, which are not always exact repeats. Equal values may be shown once. After the bases stand the sugars from the 5' end (letter, count) and the backbone: PS all phosphorothioate, else s phosphorothioate and o phosphodiester by linkage. Methylation of C is not given here. e = 2'-O-(2-methoxyethyl) (MOE); k = constrained ethyl (cEt); d = 2'-deoxy (DNA)

Target: MALAT1
Conditions: ASO, A431, 0.005 µM

AGATTAGTAGTCAAAG (sugars k3 d10 k3, PS)
target mRNA inhibition: -12%

AGATTGCCCCAACACT (sugars k3 d10 k3, PS)
target mRNA inhibition: 38%

AGCAACTCTTCTGATA (sugars k3 d10 k3, PS)
target mRNA inhibition: 30%

AGCACCGCTTGAGATT (sugars k3 d10 k3, PS)
target mRNA inhibition: 42% and 20%

AGCAGTAGGGCTTCTC (sugars k3 d10 k3, PS)
target mRNA inhibition: 3%

AGCATACCTTAACATC (sugars k3 d10 k3, PS)
target mRNA inhibition: 19%

AGCCAAGCACTCATAT (sugars k3 d10 k3, PS)
target mRNA inhibition: 17%

AGCCACTCAAATGCCT (sugars k3 d10 k3, PS)
target mRNA inhibition: 28%

AGCCAGTCAGGGACAC (sugars k3 d10 k3, PS)
target mRNA inhibition: -3%

AGCCTTCGGTGCCTTT (sugars k3 d10 k3, PS)
target mRNA inhibition: 5%

AGCGGGATCAGAACAG (sugars k3 d10 k3, PS)
target mRNA inhibition: 43%

AGCTACTGGCTGCATC (sugars k3 d10 k3, PS)
target mRNA inhibition: 20%

AGCTAGGGAAAAGTGG (sugars k3 d10 k3, PS)
target mRNA inhibition: -10%

AGCTTCAACTGGGAAT (sugars k3 d10 k3, PS)
target mRNA inhibition: 13%

AGCTTCAATCACAAAT (sugars k3 d10 k3, PS)
target mRNA inhibition: 23%

AGGAAGGCTCCATGGT (sugars k3 d10 k3, PS)
target mRNA inhibition: 11%

AGGATGTATATAGTTC (sugars k3 d10 k3, PS)
target mRNA inhibition: 2%

AGGCAAACGAAACATT (sugars k3 d10 k3, PS)
target mRNA inhibition: 35%

AGGCAAATTAATGGCC (sugars k3 d10 k3, PS)
target mRNA inhibition: 8%

AGGCTATTACCTGAAA (sugars k3 d10 k3, PS)
target mRNA inhibition: -5%

AGGGACGGTTGAGAAG (sugars k3 d10 k3, PS)
target mRNA inhibition: 14%

AGGGCTTTACTTTCCA (sugars k3 d10 k3, PS)
target mRNA inhibition: -5%

AGGTATAGTTTACCAC (sugars k3 d10 k3, PS)
target mRNA inhibition: -7%

AGTAACTACCAGCCAT (sugars k3 d10 k3, PS)
target mRNA inhibition: 45%

AGTACGAAACTCCCCC (sugars k3 d10 k3, PS)
target mRNA inhibition: 28%

AGTCAGGGACACACCC (sugars k3 d10 k3, PS)
target mRNA inhibition: -16%

AGTCCCTGAAGGTGTT (sugars k3 d10 k3, PS)
target mRNA inhibition: 28%

AGTCTCGGGCTGCAGG (sugars k3 d10 k3, PS)
target mRNA inhibition: 3%

AGTGTGATAGTTCAGG (sugars k3 d10 k3, PS)
target mRNA inhibition: 7%

AGTGTTCGCAGACAAA (sugars k3 d10 k3, PS)
target mRNA inhibition: 34%

ATAACGAAGAGATACC (sugars k3 d10 k3, PS)
target mRNA inhibition: 6%

ATACGACTGCTTAAAA (sugars k3 d10 k3, PS)
target mRNA inhibition: 20%

ATACTCTTCCAAGGAT (sugars k3 d10 k3, PS)
target mRNA inhibition: 35%

ATACTTCATTACCCCA (sugars k3 d10 k3, PS)
target mRNA inhibition: 50%

ATACTTGTCTTAGCTT (sugars k3 d10 k3, PS)
target mRNA inhibition: 60% and 75% and 50%

ATAGACGGAGAACAAC (sugars k3 d10 k3, PS)
target mRNA inhibition: 21%

ATAGCAGCGGGATCAG (sugars k3 d10 k3, PS)
target mRNA inhibition: 57%

ATAGTGTAAAACATTG (sugars k3 d10 k3, PS)
target mRNA inhibition: 0%

ATATTTTGCCCCCACC (sugars k3 d10 k3, PS)
target mRNA inhibition: 2%

ATCACCGGAATTCGAT (sugars k3 d10 k3, PS)
target mRNA inhibition: 17%

ATCACTTTAGAGGCTT (sugars k3 d10 k3, PS)
target mRNA inhibition: 53%

ATCATTGGGAGTTACT (sugars k3 d10 k3, PS)
target mRNA inhibition: 54%

ATCCTGAAATCCCCTA (sugars k3 d10 k3, PS)
target mRNA inhibition: 8%

ATCGCCTTCAAATTAT (sugars k3 d10 k3, PS)
target mRNA inhibition: 60% and 76%

ATCTAGGCCATCATAC (sugars k3 d10 k3, PS)
target mRNA inhibition: 32%

ATCTCCCACCTGTCTA (sugars k3 d10 k3, PS)
target mRNA inhibition: 45%

ATCTGCGGTTTCCTCA (sugars k3 d10 k3, PS)
target mRNA inhibition: 58%

ATGCCCACAAGGATCC (sugars k3 d10 k3, PS)
target mRNA inhibition: 33%

ATGCTTATTCCCCAAT (sugars k3 d10 k3, PS)
target mRNA inhibition: 52%

ATGGAGGTATGACATA (sugars k3 d10 k3, PS)
target mRNA inhibition: 20%

ATGGAGGTATGACATATAAT (sugars e5 d10 e5, PS)
target mRNA inhibition: 22% and 25%

ATGTACTCAGCTTCAA (sugars k3 d10 k3, PS)
target mRNA inhibition: 44%

ATGTTAAGAGAAGCCC (sugars k3 d10 k3, PS)
target mRNA inhibition: -17%

ATTAAAGAGTGTTCGC (sugars k3 d10 k3, PS)
target mRNA inhibition: 69% and 44%

ATTAATGCACTGGTAC (sugars k3 d10 k3, PS)
target mRNA inhibition: 16%

ATTACCCCAACTAAAC (sugars k3 d10 k3, PS)
target mRNA inhibition: 9%

ATTACTTCCGTTACGA (sugars k3 d10 k3, PS)
target mRNA inhibition: 43%

ATTATATGCTCATCAC (sugars k3 d10 k3, PS)
target mRNA inhibition: 51%

ATTATCCTGATATTGG (sugars k3 d10 k3, PS)
target mRNA inhibition: 46%

ATTATGGATCATGCCC (sugars k3 d10 k3, PS)
target mRNA inhibition: 17%

ATTGGGAGTTACTTGC (sugars k3 d10 k3, PS)
target mRNA inhibition: 63% and 85%

ATTTAACTTCCCCCAG (sugars k3 d10 k3, PS)
target mRNA inhibition: 18%

ATTTATAGACCCCTGA (sugars k3 d10 k3, PS)
target mRNA inhibition: -8%

CAAAACCCCCGGAACT (sugars k3 d10 k3, PS)
target mRNA inhibition: 0%

CAAAACGAATTCAGGG (sugars k3 d10 k3, PS)
target mRNA inhibition: 26%

CAACACTCAGCCTTTA (sugars k3 d10 k3, PS)
target mRNA inhibition: -1%

CAACCGTAACAGGCCA (sugars k3 d10 k3, PS)
target mRNA inhibition: 23%

CAACCTCCGTCATGTT (sugars k3 d10 k3, PS)
target mRNA inhibition: 35%

CAACTCTTCTGATAAC (sugars k3 d10 k3, PS)
target mRNA inhibition: 16%

CAAGAACTAGCACCTG (sugars k3 d10 k3, PS)
target mRNA inhibition: 7%

CAAGCTGAACTATCAC (sugars k3 d10 k3, PS)
target mRNA inhibition: 27%

CAAGGATCCAAGCTAC (sugars k3 d10 k3, PS)
target mRNA inhibition: 19%

CAAGGATGTATATAGT (sugars k3 d10 k3, PS)
target mRNA inhibition: 0%

CAAGTAAGCCCCACCC (sugars k3 d10 k3, PS)
target mRNA inhibition: 26%

CAATAGTACTATAGCA (sugars k3 d10 k3, PS)
target mRNA inhibition: 7%

CAATATTTGCCCCTCC (sugars k3 d10 k3, PS)
target mRNA inhibition: 30%

CAATGCATTCTAATAG (sugars k3 d10 k3, PS)
target mRNA inhibition: 18%

CAATGGACATCTCTTC (sugars k3 d10 k3, PS)
target mRNA inhibition: 49%

CAATTACCTAAACCCA (sugars k3 d10 k3, PS)
target mRNA inhibition: 20%

CACAAATACGACTGCT (sugars k3 d10 k3, PS)
target mRNA inhibition: 24%

CACAAGGCAAATCGCC (sugars k3 d10 k3, PS)
target mRNA inhibition: 20%

CACAATTCTTAATCAG (sugars k3 d10 k3, PS)
target mRNA inhibition: 41%

CACAGCGGTACACTCC (sugars k3 d10 k3, PS)
target mRNA inhibition: 40%

CACCAAATCGCACTGG (sugars k3 d10 k3, PS)
target mRNA inhibition: -7%

CACCGCTTGAGATTTG (sugars k3 d10 k3, PS)
target mRNA inhibition: 47% and 30% and 26%

CACGCCAACACAGTTT (sugars k3 d10 k3, PS)
target mRNA inhibition: 36%

CACGGAAATTTTTCTA (sugars k3 d10 k3, PS)
target mRNA inhibition: 8%

CACTACTCCAAGCATT (sugars k3 d10 k3, PS)
target mRNA inhibition: 23%

CACTCATATGCAATTC (sugars k3 d10 k3, PS)
target mRNA inhibition: 37%

CACTCTAAGATTGTAA (sugars k3 d10 k3, PS)
target mRNA inhibition: 33%

CACTGGATAAGTATTA (sugars k3 d10 k3, PS)
target mRNA inhibition: 40%

CACTGTCAATTTATAG (sugars k3 d10 k3, PS)
target mRNA inhibition: 19%

CACTTGCCAGTTTAAT (sugars k3 d10 k3, PS)
target mRNA inhibition: 29%

CAGAAGTCTCGGGCTG (sugars k3 d10 k3, PS)
target mRNA inhibition: 19%

CAGACAAGATTCATGA (sugars k3 d10 k3, PS)
target mRNA inhibition: 19%

CAGACCAACCCCCAGT (sugars k3 d10 k3, PS)
target mRNA inhibition: -7%

CAGACCTTCTGAACCG (sugars k3 d10 k3, PS)
target mRNA inhibition: 10%

CAGCGGGATCAGAACA (sugars k3 d10 k3, PS)
target mRNA inhibition: 23%

CAGCTAAGATAGCAGC (sugars k3 d10 k3, PS)
target mRNA inhibition: 8%

CAGCTTCAATCACAAA (sugars k3 d10 k3, PS)
target mRNA inhibition: 33%

CAGCTTCCGCTAAGAT (sugars k3 d10 k3, PS)
target mRNA inhibition: -11%

CAGGAACAAGTCCTAC (sugars k3 d10 k3, PS)
target mRNA inhibition: 19%

CAGGCAAATTAATGGC (sugars k3 d10 k3, PS)
target mRNA inhibition: 23%

CAGTAGGTATAGTTTA (sugars k3 d10 k3, PS)
target mRNA inhibition: -17%

CAGTCCTTTACAGAAG (sugars k3 d10 k3, PS)
target mRNA inhibition: 12%

CAGTCTACAAGTTACA (sugars k3 d10 k3, PS)
target mRNA inhibition: 27%

CAGTGCTATTTTATCC (sugars k3 d10 k3, PS)
target mRNA inhibition: 78% and 70%

CAGTTATATTAGGTTC (sugars k3 d10 k3, PS)
target mRNA inhibition: 8%

CAGTTCAATACTTTCC (sugars k3 d10 k3, PS)
target mRNA inhibition: 45%

CAGTTGCCGCCAGCCC (sugars k3 d10 k3, PS)
target mRNA inhibition: -3%

CATAAACAATGCACTA (sugars k3 d10 k3, PS)
target mRNA inhibition: 14%

CATCAAACACTGGTTC (sugars k3 d10 k3, PS)
target mRNA inhibition: 14%

CATCAAGGCACTGATC (sugars k3 d10 k3, PS)
target mRNA inhibition: 13%

CATCACCAAATTGCAC (sugars k3 d10 k3, PS)
target mRNA inhibition: 28%
